Results taken from patent US6203813A, “Pharmaceutical delivery device and method of preparation therefor” (priority 1998, dated 2001).
“Also recorded” adds a separate entry of the source.

Legend:
[1] = Patients' blood levels of naltrexone and 6-beta-naltrexone after subcutaneous pellet implant; format: in vivo, human
patients = details: cited from earlier work
[2] = cited from earlier work
rats [3] = details: chronic naltrexone exposure; cited from earlier work
opiate addicts = test: Relapse studies after opiate reversal under general anesthesia (telephone follow-up); format: in vivo, human
rats [4] = details: 50 mg pellets containing 10 mg naloxone or naltrexone as base; cited from earlier work
male rats = details: pentobarbital injection; naltrexone by injection vs pellet; cited from earlier work

For `O=C1CC[C@@]2(O)[C@H]3Cc4ccc(O)c5c4[C@@]2(CCN3CC2CC2)[C@H]1O5` [naltrexone, N-cyclopropylmethylnoroxy morphone], the “duration of therapeutically effective naltrexone level in bloodstream” value ([1]; 1000 mg dose, inventive implant, ~2-8 ng/ml) was “approximately eighty”, the Ntx level ([1]; 78 days since implant, patients' blood, pellet of Examples 1-4, listed as Ntx, 112320 min) was 6 ng/mL and the concentration at 1920 h ([1]; human, blood, sc, 1000 mg, inventive implant, leveling off, for approximately eighty days, read-out: level of naltrexone in patient's bloodstream) was 2 to 8 ng/mL. For the same compound, the concentration at 192 h ([1]; human, blood, sc, 8 days since implant, patients' blood, pellet of Examples 1-4, read-out: Ntx level) was 7 ng/mL, the concentration at 336 h ([1]; human, blood, sc, 14 days since implant, patients' blood, pellet of Examples 1-4, read-out: Ntx level) was 11 ng/mL and the concentration at 528 h ([1]; human, blood, sc, 22 days since implant, patients' blood, pellet of Examples 1-4, read-out: Ntx level) was 7 ng/mL. It also gave a concentration at 672 h ([1]; human, blood, sc, 28 days since implant, patients' blood, pellet of Examples 1-4, read-out: Ntx level) of 2 ng/mL, a concentration at 696 h ([1]; human, blood, sc, 29 days since implant, patients' blood, pellet of Examples 1-4, read-out: Ntx level) of 2 ng/mL and a concentration at 768 h ([1]; human, blood, sc, 32 days since implant, patients' blood, pellet of Examples 1-4, read-out: Ntx level) of 7 ng/mL. It also gave a concentration at 792 h ([1]; human, blood, sc, 33 days since implant, patients' blood, pellet of Examples 1-4, read-out: Ntx level) of less than 2 ng/mL, a concentration at 816 h ([1]; human, blood, sc, 34 days since implant, patients' blood, pellet of Examples 1-4, read-out: Ntx level) of 4 ng/mL and a concentration at 840 h ([1]; human, blood, sc, 35 days since implant, patients' blood, pellet of Examples 1-4, read-out: Ntx level) of 4 ng/mL. The concentration at 888 h ([1]; human, blood, sc, 37 days since implant, patients' blood, pellet of Examples 1-4, read-out: Ntx level) was less than 3 ng/mL, the concentration at 912 h ([1]; human, blood, sc, 38 days since implant, patients' blood, pellet of Examples 1-4, read-out: Ntx level) was less than 2 ng/mL and the concentration at 936 h ([1]; human, blood, sc, 39 days since implant, patients' blood, pellet of Examples 1-4, read-out: Ntx level) was 5 ng/mL. For the same compound, the concentration at 1008 h ([1]; human, blood, sc, 42 days since implant, patients' blood, pellet of Examples 1-4, read-out: Ntx level) was 4 ng/mL, the concentration at 1176 h ([1]; human, blood, sc, 49 days since implant, patients' blood, pellet of Examples 1-4, read-out: Ntx level) was 4 ng/mL and the concentration at 1224 h ([1]; human, blood, sc, 51 days since implant, patients' blood, pellet of Examples 1-4, read-out: Ntx level) was 8 ng/mL. It also gave a concentration at 1320 h ([1]; human, blood, sc, 55 days since implant, patients' blood, pellet of Examples 1-4, read-out: Ntx level) of 36 ng/mL, a concentration at 1440 h ([1]; human, blood, sc, 60 days since implant, patients' blood, pellet of Examples 1-4, read-out: Ntx level) of 10 ng/mL and a concentration at 1488 h ([1]; human, blood, sc, 62 days since implant, patients' blood, pellet of Examples 1-4, read-out: Ntx level) of less than 4 ng/mL. It also gave a concentration at 1560 h ([1]; human, blood, sc, 65 days since implant, patients' blood, pellet of Examples 1-4, read-out: Ntx level) of less than 2 ng/mL, a concentration at 1680 h ([1]; human, blood, sc, 70 days since implant, patients' blood, pellet of Examples 1-4, read-out: Ntx level) of 3 ng/mL and a concentration at 1848 h ([1]; human, blood, sc, 77 days since implant, patients' blood, pellet of Examples 1-4, read-out: Ntx level) of 2 ng/mL. For the same compound, the concentration at 1872 h ([1]; human, blood, sc, 78 days since implant, patients' blood, pellet of Examples 1-4, read-out: Ntx level) was 4 ng/mL, the addiction liability (patients; human, in vivo) was “neither addicting nor habit-forming” and the “euphoric effects / effects on stopping the drug” value (patients; human, in vivo) was “provides no euphoric effects and there are no observable pharmacological consequences when a patient stops taking the drug”. For the same compound, the side-effects (patients; use in humans) was “free of severe side-effects”, the “level in bloodstream after leveling off, oral” value ([2]; 1000 mg naltrexone orally, after 48 hours / two days) was 0 ng/mL and the “duration of the 100 ng/ml level, oral” value ([2]; 1000 mg naltrexone orally) was 48 h. The “level in patient's bloodstream, oral” value ([2]; 1000 mg naltrexone orally, for 48 hours) was 100 ng/mL, the “undesirable side effects of conventional oral delivery” value ([2]; at approximately 100 ng/l in the blood stream) was “undesirable side effects such as an unpleasant feeling” and the “behavioral sensitivity / morphine-induced hyperactivity after chronic naltrexone” value (rats [3]) was “produces behavioral supersensitivity to morphine-induced reinforcement and hyperactivity; also recorded: potentiated morphine-induced hyperactivity in rats”. The “patients using opiates, assuming all not contacted were using” value (opiate addicts; one month after opiate reversal, DNM versus ONM, x2=0.76 (not significant)) was 54%, the “patients using opiates, excluding those who could not be contacted” value (opiate addicts; one month follow-up after ORGA, DNM 1000 mg per month pellet versus ONM 50 mg per day oral, x2=14.06 (very significant)) was 44% and the “analgesia on repeated painful stimulation” value (rats [4]) was “repeated painful stimulation results in analgesia in rats treated with an opiate antagonist”. The pentobarbital sleeping time (male rats) was “increasingly antagonized after naltrexone administration by injection”.

For `C=CCN1CC[C@]23c4c5ccc(O)c4O[C@H]2C(=O)CC[C@@]3(O)[C@H]1C5` [naloxone, N-allylnoroxymorphone], the “analgesia on repeated painful stimulation” value (rats [4]) is given as “repeated painful stimulation results in analgesia in rats treated with an opiate antagonist”.
